From patent US7060872B1, “Method for producing plants having modified canopy size or seedless fruit” (The State of Israel-Ministry of Agriculture & Rural …, priority 1998, dated 2006)
“Also recorded” adds a separate entry of the source.

Tested on: transgenic tomato plants expressing the sps streptavidin construct
Assay: External biotin application to sps transgenic tomato plants (reversal of degeneration)
Assay type: in vivo
Excerpt: The morphology and development of leaves of 6 weeks old plants obtained from non transgenic plant and transgenic tomato plants expressing the sps streptavidin construct and treated daily with biotin were also examined. FIG. 7 depicts the results of this study. […] This degeneration was to a lesser degree in the treated plants. Non transgenic plants both biotin treated and untreated appeared normal.
All of the plants treated with biotin remained green and vital throughout their development.

O=C(O)CCCC[C@@H]1SC[C@@H]2NC(=O)N[C@@H]21 [biotin]
effect of daily biotin spraying after the initial chlorotic symptoms, on leaves (2 μM biotin, daily spray): development of normal leaves
effect of daily biotin spraying after the initial necrotic lesion (2 μM biotin, daily spray): stopped or prevented further development of degenerative symptoms
effect of daily biotin spraying after the initial flower buds, on fruit and seed (2 μM biotin, daily spray, plants with seedless fruit): development of normal fruit and the restoration of normal seed development
effect of spraying biotin on the affected area (6 mg/liter biotin): stopped the degeneration process and plants' growth was restored
effect of biotin application to T0 plants on germination of their seeds (seeds otherwise non-germinating (FIG. 6)): restored the germination; also recorded: normal germination
effect of biotin solution on leaf development of a degenerated T0 plant (seen 10 or 20 days after application (FIG. 5)): restored normal leaf development
tissue degeneration after a single biotin treatment (treated once after 3 weeks, 6 weeks old plants, versus untreated transgenic plants (FIG. 7)): lesser degree
